In PubChem BioAssay (NCI):
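1) Cells in 96-well plates. 2) Compound, 48 h, 5 concentrations. 3) Linear interpolation between surrounding doses. 4) Unreached endpoint = highest concentration. TGI is the concentration that stops growth completely.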

Key:
Assay in all cases: NCI tumour cell line growth inhibition, 48 h
786-0 renal = test system: 786-0 renal
A549 NSCLC = test system: A549 NSCLC
HCT-116 colon = test system: HCT-116 colon
HL-60(TB) leukemia = test system: HL-60(TB) leukemia
HT29 colon = test system: HT29 colon
K-562 leukemia = test system: K-562 leukemia
LOX IMVI melanoma = test system: LOX IMVI melanoma
M14 melanoma = test system: M14 melanoma
MOLT-4 leukemia = test system: MOLT-4 leukemia
OVCAR-4 ovarian = test system: OVCAR-4 ovarian
SF-268 CNS = test system: SF-268 CNS
SF-295 CNS = test system: SF-295 CNS
SN12C renal = test system: SN12C renal
UO-31 renal = test system: UO-31 renal
HOP-92 NSCLC = test system: HOP-92 NSCLC
IGROV1 ovarian = test system: IGROV1 ovarian
SW-620 colon = test system: SW-620 colon
CAKI-1 renal = test system: CAKI-1 renal
SK-MEL-2 melanoma = test system: SK-MEL-2 melanoma

O=C1c2cn[nH]c2N=C(Nc2ccccc2)C1N=Cc1ccc([N+](=O)[O-])cc1 (stereo unspecified)
TGI (786-0 renal): > 10 µM
TGI (A549 NSCLC): > 10 µM
TGI (HCT-116 colon): > 10 µM
TGI (HL-60(TB) leukemia): > 10 µM
TGI (HT29 colon): > 10 µM
TGI (K-562 leukemia): > 10 µM
TGI (LOX IMVI melanoma): > 10 µM
TGI (M14 melanoma): > 10 µM
TGI (MOLT-4 leukemia): > 10 µM
TGI (OVCAR-4 ovarian): > 10 µM
TGI (SF-268 CNS): > 10 µM
TGI (SF-295 CNS): > 10 µM
TGI (SN12C renal): > 10 µM
TGI (UO-31 renal): > 10 µM

COc1ccc(-c2cc(=O)c3cc(Cl)ccc3[nH]2)cc1
TGI (786-0 renal): > 100 µM
TGI (HCT-116 colon): > 100 µM
TGI (HL-60(TB) leukemia): > 100 µM
TGI (HOP-92 NSCLC): > 100 µM
TGI (HT29 colon): > 100 µM
TGI (IGROV1 ovarian): > 100 µM
TGI (K-562 leukemia): > 100 µM
TGI (LOX IMVI melanoma): > 100 µM
TGI (M14 melanoma): > 100 µM
TGI (MOLT-4 leukemia): > 100 µM
TGI (OVCAR-4 ovarian): > 100 µM
TGI (SF-268 CNS): > 100 µM
TGI (SF-295 CNS): > 100 µM
TGI (SN12C renal): > 100 µM
TGI (SW-620 colon): > 100 µM
TGI (UO-31 renal): > 100 µM

CSc1nc(NC2OCC(OC(C)=O)C(OC(C)=O)C2OC(C)=O)c2c(n1)OCC2=O (stereo unspecified)
TGI (786-0 renal): > 100 µM
TGI (A549 NSCLC): > 100 µM
TGI (CAKI-1 renal): > 100 µM
TGI (HCT-116 colon): > 100 µM
TGI (HL-60(TB) leukemia): > 100 µM
TGI (HT29 colon): > 100 µM
TGI (IGROV1 ovarian): > 100 µM
TGI (K-562 leukemia): > 100 µM
TGI (LOX IMVI melanoma): > 100 µM
TGI (M14 melanoma): > 100 µM
TGI (MOLT-4 leukemia): > 100 µM
TGI (SF-268 CNS): > 100 µM
TGI (SF-295 CNS): > 100 µM
TGI (SK-MEL-2 melanoma): > 100 µM
TGI (SN12C renal): > 100 µM
TGI (SW-620 colon): > 100 µM
TGI (UO-31 renal): > 100 µM

CCc1ccc(Cc2ccc(CC)c(NC(=O)C(=O)C3NC(=S)NC3=O)c2CC)c(CC)c1NC(=O)C(=O)C1NC(=S)NC1=O (stereo unspecified)
TGI (786-0 renal): > 100 µM
TGI (A549 NSCLC): > 100 µM
TGI (CAKI-1 renal): > 100 µM
TGI (HCT-116 colon): > 100 µM
TGI (HL-60(TB) leukemia): > 100 µM
TGI (HOP-92 NSCLC): > 100 µM
TGI (IGROV1 ovarian): > 100 µM
TGI (K-562 leukemia): > 100 µM
TGI (LOX IMVI melanoma): > 100 µM
TGI (M14 melanoma): > 100 µM
TGI (MOLT-4 leukemia): > 100 µM
TGI (OVCAR-4 ovarian): > 100 µM
TGI (SF-268 CNS): > 100 µM
TGI (SK-MEL-2 melanoma): > 100 µM
TGI (SW-620 colon): > 100 µM
TGI (UO-31 renal): > 100 µM

O=C(O[C@H]1[C@@H]2C=CO[C@@H](OC3OC(CO)C(O)C(O)C3O)[C@@H]2[C@@]2(CO)O[C@@H]12)c1ccc(O)c(O)c1 (stereo partly specified)
TGI (786-0 renal): > 100 µM
TGI (A549 NSCLC): > 100 µM
TGI (CAKI-1 renal): > 100 µM
TGI (HL-60(TB) leukemia): > 100 µM
TGI (HOP-92 NSCLC): > 100 µM
TGI (HT29 colon): > 100 µM
TGI (IGROV1 ovarian): > 100 µM
TGI (K-562 leukemia): > 100 µM
TGI (LOX IMVI melanoma): > 100 µM
TGI (M14 melanoma): > 100 µM
TGI (MOLT-4 leukemia): > 100 µM
TGI (OVCAR-4 ovarian): > 100 µM
TGI (SF-268 CNS): > 100 µM
TGI (SF-295 CNS): > 100 µM
TGI (SK-MEL-2 melanoma): > 100 µM
TGI (SN12C renal): > 100 µM
TGI (SW-620 colon): > 100 µM
TGI (UO-31 renal): > 100 µM

N#Cc1ccccc1NC(=O)C(=O)C(C(=O)c1ccncc1)C1OC(=O)c2ccccc21 (stereo unspecified)
TGI (786-0 renal): > 100 µM
TGI (A549 NSCLC): > 100 µM
TGI (CAKI-1 renal): > 100 µM
TGI (HCT-116 colon): > 100 µM
TGI (HL-60(TB) leukemia): > 100 µM
TGI (HOP-92 NSCLC): > 100 µM
TGI (HT29 colon): > 100 µM
TGI (IGROV1 ovarian): > 100 µM
TGI (K-562 leukemia): > 100 µM
TGI (LOX IMVI melanoma): > 100 µM
TGI (M14 melanoma): > 100 µM
TGI (OVCAR-4 ovarian): > 100 µM
TGI (SF-268 CNS): > 100 µM
TGI (SF-295 CNS): > 100 µM
TGI (SN12C renal): > 100 µM
TGI (SW-620 colon): > 100 µM
TGI (UO-31 renal): > 100 µM

CN/N=C(\C(=O)Nc1ccc(C(F)(F)F)cc1[N+](=O)[O-])C(c1cnc2ccc([N+](=O)[O-])cc2n1)[N+](=O)[O-] (stereo unspecified)
TGI (786-0 renal): > 100 µM
TGI (A549 NSCLC): > 100 µM
TGI (CAKI-1 renal): > 100 µM
TGI (HCT-116 colon): > 100 µM
TGI (HOP-92 NSCLC): > 100 µM
TGI (HT29 colon): > 100 µM
TGI (IGROV1 ovarian): > 100 µM
TGI (K-562 leukemia): > 100 µM
TGI (LOX IMVI melanoma): > 100 µM
TGI (M14 melanoma): > 100 µM
TGI (MOLT-4 leukemia): > 100 µM
TGI (SF-268 CNS): > 100 µM
TGI (SF-295 CNS): > 100 µM
TGI (SK-MEL-2 melanoma): > 100 µM
TGI (SN12C renal): > 100 µM
TGI (SW-620 colon): > 100 µM
TGI (UO-31 renal): > 100 µM

C=CCCCN1CCCCC1=S
TGI (786-0 renal): > 100 µM
TGI (A549 NSCLC): > 100 µM
TGI (HCT-116 colon): > 100 µM
TGI (HL-60(TB) leukemia): > 100 µM
TGI (HOP-92 NSCLC): > 100 µM
TGI (HT29 colon): > 100 µM
TGI (IGROV1 ovarian): > 100 µM
TGI (K-562 leukemia): > 100 µM
TGI (LOX IMVI melanoma): > 100 µM
TGI (M14 melanoma): > 100 µM
TGI (MOLT-4 leukemia): > 100 µM
TGI (OVCAR-4 ovarian): > 100 µM
TGI (SF-295 CNS): > 100 µM
TGI (SK-MEL-2 melanoma): > 100 µM
TGI (SN12C renal): > 100 µM
TGI (SW-620 colon): > 100 µM
TGI (UO-31 renal): > 100 µM

N#Cc1ccc(OCCSCCCCCCCCCCSCCOc2ccc(C#N)cc2)cc1
TGI (786-0 renal): > 100 µM
TGI (A549 NSCLC): > 100 µM
TGI (HL-60(TB) leukemia): > 100 µM
TGI (IGROV1 ovarian): > 100 µM
TGI (K-562 leukemia): > 100 µM
TGI (LOX IMVI melanoma): > 100 µM
TGI (M14 melanoma): > 100 µM
TGI (MOLT-4 leukemia): > 100 µM
TGI (SF-268 CNS): > 100 µM
TGI (SF-295 CNS): > 100 µM
TGI (SK-MEL-2 melanoma): > 100 µM
TGI (SN12C renal): > 100 µM
TGI (SW-620 colon): > 100 µM
TGI (UO-31 renal): > 100 µM

Nc1ccn(CCOC(c2ccccc2)P(=O)(O)O)c(=O)n1 (stereo unspecified)
TGI (786-0 renal): > 100 µM
TGI (A549 NSCLC): > 100 µM
TGI (CAKI-1 renal): > 100 µM
TGI (HCT-116 colon): > 100 µM
TGI (HL-60(TB) leukemia): > 100 µM
TGI (HT29 colon): > 100 µM
TGI (IGROV1 ovarian): > 100 µM
TGI (LOX IMVI melanoma): > 100 µM
TGI (MOLT-4 leukemia): > 100 µM
TGI (SF-268 CNS): > 100 µM
TGI (SF-295 CNS): > 100 µM
TGI (SK-MEL-2 melanoma): > 100 µM
TGI (SN12C renal): > 100 µM
TGI (SW-620 colon): > 100 µM
TGI (UO-31 renal): > 100 µM
